Where “and” joins values, the source holds several entries; their conditions need not be identical. Equal values may be shown once.

Data on 23 compounds can be found in ChEMBL document CHEMBL1136757 (J Med Chem, 2003).

For test [1], the target named is T1, Aldo-keto reductase family 1 member A1 (Rattus norvegicus, UniProt P51635).
T1 sequence (P51635 whole entry): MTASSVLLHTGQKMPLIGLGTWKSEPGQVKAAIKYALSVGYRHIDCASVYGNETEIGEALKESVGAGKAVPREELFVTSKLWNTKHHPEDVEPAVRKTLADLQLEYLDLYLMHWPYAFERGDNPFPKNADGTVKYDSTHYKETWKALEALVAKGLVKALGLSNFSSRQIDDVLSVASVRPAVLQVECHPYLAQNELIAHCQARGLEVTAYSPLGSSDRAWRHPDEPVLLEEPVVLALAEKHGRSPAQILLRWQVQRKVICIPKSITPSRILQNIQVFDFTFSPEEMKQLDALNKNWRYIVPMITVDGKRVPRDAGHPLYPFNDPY
The test can be described thus: In vitro inhibitory activity against aldehyde reductase 1 (ALR1) from rat kidney.

Test [2] deals with T2, Glutathione reductase (Saccharomyces cerevisiae S288c, UniProt P41921).
T2 sequence (P41921 whole entry): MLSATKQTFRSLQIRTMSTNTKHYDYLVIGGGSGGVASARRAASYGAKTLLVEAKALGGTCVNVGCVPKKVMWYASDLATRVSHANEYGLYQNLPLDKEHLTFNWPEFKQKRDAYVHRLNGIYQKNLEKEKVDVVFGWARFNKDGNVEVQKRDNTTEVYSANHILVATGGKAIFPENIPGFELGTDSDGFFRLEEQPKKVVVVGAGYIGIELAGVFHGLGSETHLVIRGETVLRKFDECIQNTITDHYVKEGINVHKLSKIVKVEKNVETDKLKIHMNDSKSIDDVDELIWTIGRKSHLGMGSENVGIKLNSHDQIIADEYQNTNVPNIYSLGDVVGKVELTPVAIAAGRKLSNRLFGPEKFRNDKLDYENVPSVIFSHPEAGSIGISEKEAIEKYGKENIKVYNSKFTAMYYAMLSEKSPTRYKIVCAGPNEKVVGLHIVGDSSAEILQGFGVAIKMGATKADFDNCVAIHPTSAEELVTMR
The test is described as follows: In vitro inhibitory activity against glutathione reductase (GR) from bakers yeast; Not active.

A short description of test [3]: In vitro inhibitory activity against sorbitol dehydrogenase (SD) from sheep liver; Not active.
The target in test [4] is Aldo-keto reductase family 1 member B1 (Rattus norvegicus, UniProt P07943). The test can be described thus: In vitro inhibitory activity against aldose reductase (ALR2) from rat lens extraction.
Test [5] is filed under the species Rattus norvegicus. The test is described as follows: Ability to prevent cataract development in severly galactosemic rat treated with 3 percent ophthalmic solution on day 11. The test is classed as functional.
For test [6], the species on record is Rattus norvegicus. The test is described as follows: Ability to prevent cataract development in severly galactosemic rat treated with 3 percent ophthalmic solution on day 17. The format is functional.
For test [7], the species on record is Rattus norvegicus. The test is described as follows: Ability to prevent cataract development in severly galactosemic rat treated with 3 percent ophthalmic solution on day 18. The format is functional.
Test [8] is filed under the species Rattus norvegicus. The test can be described thus: Ability to prevent cataract development in severly galactosemic rat treated with 3 percent ophthalmic solution on day 16. The format is functional.
Test [9] is filed under the species Rattus norvegicus. The test is described as follows: Ability to prevent cataract development in severly galactosemic rat treated with 3 percent ophthalmic solution on day 13. The format is functional.
Test [10] is filed under the species Rattus norvegicus. The test is described as follows: Ability to prevent cataract development in severly galactosemic rat treated with 3 percent ophthalmic solution on day 12. The test is classed as functional.
For test [11], the species on record is Rattus norvegicus. The test can be described thus: Ability to prevent cataract development in severly galactosemic rat treated with 3 percent ophthalmic solution on day 15. The format is functional.
The species entered for test [12] is Rattus norvegicus. The test is described as follows: Ability to prevent cataract development in severly galactosemic rat treated with 3 percent ophthalmic solution on day 20. The format is functional.
Test [13] is filed under the species Rattus norvegicus. The test is described as follows: Ability to prevent cataract development in severly galactosemic rat treated with 3 percent ophthalmic solution on day 21. The format is functional.
The species entered for test [14] is Rattus norvegicus. The test is described as follows: Ability to prevent cataract development in severly galactosemic rat treated with 3 percent ophthalmic solution on day 19. The format is functional.
The species named for test [15] is Rattus norvegicus. The test can be described thus: Ability to prevent cataract development in severly galactosemic rat treated with 3 percent ophthalmic solution on day 14. The test is classed as functional.
Test [16] addresses T2, Glutathione reductase. The test can be described thus: In vitro inhibitory activity against glutathione reductase (GR) from bakers yeast.
Test [17] is filed under the species Rattus norvegicus. The test can be described thus: Ability to prevent cataract development in severly galactosemic rat treated with 1 percent ophthalmic solution on day 15. The test is classed as functional.
For test [18], the species on record is Rattus norvegicus. The test is described as follows: Ability to prevent cataract development in severly galactosemic rat treated with 1 percent ophthalmic solution on day 17. The test is classed as functional.
For test [19], the species on record is Rattus norvegicus. The test can be described thus: Ability to prevent cataract development in severly galactosemic rat treated with 1 percent ophthalmic solution on day 18. The test is classed as functional.
Test [20] is filed under the species Rattus norvegicus. The test can be described thus: Ability to prevent cataract development in severly galactosemic rat treated with 1 percent ophthalmic solution on day 12. The test is classed as functional.
The species named for test [21] is Rattus norvegicus. The test can be described thus: Ability to prevent cataract development in severly galactosemic rat treated with 1 percent ophthalmic solution on day 21. The test is classed as functional.
The species entered for test [22] is Rattus norvegicus. The test is described as follows: Ability to prevent cataract development in severly galactosemic rat treated with 1 percent ophthalmic solution on day 14. The format is functional.
For test [23], the species on record is Rattus norvegicus. The test can be described thus: Ability to prevent cataract development in severly galactosemic rat treated with 1 percent ophthalmic solution on day 13. The format is functional.
For test [24], the species on record is Rattus norvegicus. The test is described as follows: Ability to prevent cataract development in severly galactosemic rat treated with 1 percent ophthalmic solution on day 11. The format is functional.
For test [25], the species on record is Rattus norvegicus. The test can be described thus: Ability to prevent cataract development in severly galactosemic rat treated with 1 percent ophthalmic solution on day 20. The test is classed as functional.
The species entered for test [26] is Rattus norvegicus. The test can be described thus: Ability to prevent cataract development in severly galactosemic rat treated with 1 percent ophthalmic solution on day 16. The format is functional.
The species named for test [27] is Rattus norvegicus. The test can be described thus: Ability to prevent cataract development in severly galactosemic rat treated with 1 percent ophthalmic solution on day 19. The test is classed as functional.

Turning to `Cc1ccc(CN2C(=O)C(C(C#N)C(=O)O)c3ccccc32)cc1` (centres undefined), the IC50 in test [1] was 3570 nM; at Glutathione reductase [2] it was “Not Active”; in [3] it was “Not Active”; in [4], 640 nM and 460 nM.

`COc1ccc(CN2C(=O)C(C(C#N)C(=O)O)c3cc(F)ccc32)cc1` (centres undefined) displayed an IC50 in test [4] of 110 nM.

For the compound `N#CC(C(=O)O)C1C(=O)Nc2ccc(F)cc21` (centres undefined), the IC50 is 6790 nM in test [1], “Not Active” at Glutathione reductase [2], “Not Active” in test [3] and 280 nM in test [4].

As to `COc1ccc(CN2C(=O)C(C(C#N)C(=O)O)c3ccccc32)cc1` (centres undefined), in [4], the IC50 came to 630 nM.

Take `N#CC(C(=O)O)C1C(=O)Nc2ccc(Br)cc21` (centres undefined): the IC50 in [4] amounted to 380 nM.

In the case of `CCCN1C(=O)C(C(C#N)C(=O)O)c2cc(F)ccc21` (centres undefined), in [4], the IC50 came out at 280 nM.

For `N#CC(C(=O)O)C1C(=O)N(CCCl)c2ccc(F)cc21` (centres undefined), the IC50 in [4] is 1340 nM.

`N#CC(C(=O)O)C1C(=O)N(Cc2ccccc2)c2ccc(F)cc21` (centres undefined) registered an IC50 in test [4] of 180 nM.

`N#CC(C(=O)O)C1C(=O)Nc2ccc([N+](=O)[O-])cc21` (centres undefined): the IC50 in [4] was found to be 1200 nM.

In test [4], `Cc1ccc(CN2C(=O)C(C(C#N)C(=O)O)c3cc(Br)ccc32)cc1` (centres undefined) came in with an IC50 of 250 nM.

`Cc1ccc(CN2C(=O)C(C(C#N)C(=O)O)c3cc(F)ccc32)cc1` (centres undefined): the Nuclear cataract in the test listed under Rattus norvegicus [5] came out at 0%; in the test filed under Rattus norvegicus [6], 57%; in the test filed under Rattus norvegicus [7], 72%; in the test listed under Rattus norvegicus [8] it was 57%; in the test listed under Rattus norvegicus [9], 0%; in the test listed under Rattus norvegicus [10] it was 0%. The Nuclear cataract was found to be 43% in the test filed under Rattus norvegicus [11]; 96% in the test filed under Rattus norvegicus [12]; 100% in the test filed under Rattus norvegicus [13]; 84% in the test filed under Rattus norvegicus [14]; 18% in the test filed under Rattus norvegicus [15]. Moreover, the IC50 in test [1] was 690 nM; against Glutathione reductase [2], “Not Active”; in test [4], 75 nM and 42 nM.

For `N#CC(C(=O)O)C1C(=O)Nc2ccccc21` (centres undefined), the IC50 in [4] was found to be 850 nM.

Turning to `Cc1ccc(CN2C(=O)C(C(C#N)C(=O)OC(C)C)c3cc(F)ccc32)cc1` (centres undefined), the Nuclear cataract in the test listed under Rattus norvegicus [5], in the test listed under Rattus norvegicus [6], in the test listed under Rattus norvegicus [7], in the test listed under Rattus norvegicus [8], in the test filed under Rattus norvegicus [9] and in the test filed under Rattus norvegicus [10] was 0% in each case. The Nuclear cataract in the test listed under Rattus norvegicus [11] came out at 0%; in the test listed under Rattus norvegicus [12], 8%; in the test filed under Rattus norvegicus [13] it was 8%; in the test listed under Rattus norvegicus [14], 8%; in the test filed under Rattus norvegicus [15], 0%.

As for `N#CC(C(=O)O)C1C(=O)N(Cc2ccccc2)c2ccccc21` (centres undefined), the IC50 in test [4] stood at 3200 nM.

`N#CC(C(=O)O)C1C(=O)N(Cc2ccc(C(F)(F)F)cc2)c2ccccc21` (centres undefined) gave an IC50 in test [4] of 570 nM.

For the compound `N#CC(C(=O)O)C1C(=O)N(Cc2ccc(F)cc2)c2ccc(F)cc21` (centres undefined), the IC50 was 490 nM in test [1]; “Not Active” against Glutathione reductase [2]; “Not Active” in test [3]; 130 nM and 58 nM in test [4].

Compound `N#CC(C(=O)O)C1C(=O)N(Cc2ccc(F)cc2)c2ccccc21` (centres undefined) displayed an IC50 in test [4] of 570 nM.

In [4], `COc1ccc2c(c1)C(C(C#N)C(=O)O)C(=O)N2` (centres undefined) had an IC50 of 5400 nM.

As to `CN1C(=O)C(C(C#N)C(=O)O)c2cc(F)ccc21` (centres undefined), the IC50 in test [4] was 390 nM.

With `N#CC(C(=O)O)C1C(=O)N(Cc2ccc(C(F)(F)F)cc2)c2ccc(F)cc21` (centres undefined), the 50% inhibitory concentration (IC50) in test [4] was 280 nM.

As to `O=c1c(O)c(-c2ccc(O)c(O)c2)oc2cc(O)cc(O)c12` [QUERCETIN], at Glutathione reductase [16], the IC50 is 48800 nM.

Regarding `O=C1NC(=O)[C@@]2(CCOc3ccc(F)cc32)N1` [SORBINIL], the 50% inhibitory concentration (IC50) entry against Glutathione reductase [2] is “Not Active”.

On to `COc1ccc2c(C(=S)N(C)CC(=O)O)cccc2c1C(F)(F)F` [TOLRESTAT], for which the Nuclear cataract came out at 0% in the test filed under Rattus norvegicus [5]; 0% in the test listed under Rattus norvegicus [6]; 32% in the test listed under Rattus norvegicus [17]; 0% in the test filed under Rattus norvegicus [7]; 32% in the test filed under Rattus norvegicus [18]; 0% in the test filed under Rattus norvegicus [8]. Further, the Nuclear cataract in the test filed under Rattus norvegicus [9] is 0%; in the test listed under Rattus norvegicus [19] it was 43%; in the test listed under Rattus norvegicus [20], 0%; in the test filed under Rattus norvegicus [21], 47%; in the test filed under Rattus norvegicus [10] it was 0%; in the test filed under Rattus norvegicus [22] it was 23%. Further, the Nuclear cataract in the test listed under Rattus norvegicus [11], in the test filed under Rattus norvegicus [12], in the test filed under Rattus norvegicus [13], in the test listed under Rattus norvegicus [23], in the test listed under Rattus norvegicus [24] and in the test listed under Rattus norvegicus [14] was 0% throughout. Besides, the Nuclear cataract in the test filed under Rattus norvegicus [25] turned out to be 47%; in the test filed under Rattus norvegicus [26], 32%; in the test listed under Rattus norvegicus [27], 43%; in the test filed under Rattus norvegicus [15] it was 0%. Further, the IC50 entry in test [1] is “Not Active”; on Glutathione reductase [2] it was “Not Active”; in [4], 46 nM.
